Experimental data published in ChEMBL document CHEMBL1201862, “PubChem BioAssay data set” (2004).
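Compound exposure: 48 hours, 5 concentrations, 96-well plates. Here, GI50 denotes the concentration required for 50% inhibition of growth.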 The source made the active and inactive calls. No stated cut-off is given here; in the data, active = GI50 up to about 1.1 µM and inactive = higher.

Tests used:
Assay in all cases: growth of human tumour cells (NCI), 48 h
786-0 = tested on: 786-0
A549 = tested on: A549
BT-549 = tested on: BT-549
COLO 205 = tested on: COLO 205
K562 = tested on: K562
LOX IMVI = tested on: LOX IMVI
M14 = tested on: M14
MCF7 = tested on: MCF7
MDA-MB-231 = tested on: MDA-MB-231
MDA-MB-435 = tested on: MDA-MB-435
MOLT-4 = tested on: MOLT-4
NCI/ADR-RES = tested on: NCI/ADR-RES
OVCAR-3 = tested on: OVCAR-3
OVCAR-8 = tested on: OVCAR-8
SK-MEL-2 = tested on: SK-MEL-2
SK-MEL-5 = tested on: SK-MEL-5
SNB-19 = tested on: SNB-19
TK-10 = tested on: TK-10
U-251 = tested on: U-251
UACC-257 = tested on: UACC-257

Row | SMILES | GI50 (786-0) | GI50 (A549) | GI50 (BT-549) | GI50 (COLO 205) | GI50 (K562) | GI50 (LOX IMVI) | GI50 (M14) | GI50 (MCF7) | GI50 (MDA-MB-231) | GI50 (MDA-MB-435) | GI50 (MOLT-4) | GI50 (NCI/ADR-RES) | GI50 (OVCAR-3) | GI50 (OVCAR-8) | GI50 (SK-MEL-2) | GI50 (SK-MEL-5) | GI50 (SNB-19) | GI50 (TK-10) | GI50 (U-251) | GI50 (UACC-257)
1 | CN(C)Cc1cc(C(C)(C)C)cc(CN(C)C)c1O | 60.1 µM (inactive) | 76.6 µM (inactive) | > 100 µM (inactive) | 35.8 µM (inactive) | > 100 µM (inactive) | 95.9 µM (inactive) | > 100 µM (inactive) | 96.2 µM (inactive) | 92.5 µM (inactive) | > 100 µM (inactive) | 49.2 µM (inactive) | 34.2 µM (inactive) | 28.8 µM (inactive) | 98.4 µM (inactive) | > 100 µM (inactive) | > 100 µM (inactive) | > 100 µM (inactive) | 67.3 µM (inactive) | 98.6 µM (inactive) | > 100 µM (inactive)
2 | COc1ccc(NC=O)c(C(=O)CCNC(C)=O)c1 | > 100 µM (inactive) | > 100 µM (inactive) | > 100 µM (inactive) | > 100 µM (inactive) | > 100 µM (inactive) | > 100 µM (inactive) | > 100 µM (inactive) | > 100 µM (inactive) | > 100 µM (inactive) | > 100 µM (inactive) | > 100 µM (inactive) | > 100 µM (inactive) | > 100 µM (inactive) | > 100 µM (inactive) | > 100 µM (inactive) | > 100 µM (inactive) | > 100 µM (inactive) | > 100 µM (inactive) | > 100 µM (inactive) | > 100 µM (inactive)
3 | O=C1C/C(=N/c2ccc(Cl)cc2)C(c2ccccc2)N1c1ccccc1 (stereo not given) | 38.4 µM (inactive) | 17.4 µM (inactive) | 5.28 µM (inactive) | 3.66 µM (inactive) | 1.32 µM (inactive) | 6.05 µM (inactive) | 5.9 µM (inactive) | 10 µM (inactive) | 7.21 µM (inactive) | 2.15 µM (inactive) | 7.89 µM (inactive) | 7.06 µM (inactive) | 2.99 µM (inactive) | – | 2.7 µM (inactive) | 5.9 µM (inactive) | 19.9 µM (inactive) | 23.9 µM (inactive) | 32.7 µM (inactive) | 17.4 µM (inactive)
4 | O=C(/C=C/c1ccco1)CC(=O)/C=C/c1ccco1 | 12.7 µM (inactive) | 14.4 µM (inactive) | 18.2 µM (inactive) | > 10 µM (inactive) | 9.89 µM (inactive) | 4.99 µM (inactive) | 14.7 µM (inactive) | 8.32 µM (inactive) | > 10 µM (inactive) | 10.1 µM (inactive) | 12 µM (inactive) | 12.8 µM (inactive) | > 10 µM (inactive) | 17.7 µM (inactive) | 14.3 µM (inactive) | 12.3 µM (inactive) | 15.5 µM (inactive) | 26.3 µM (inactive) | 13.7 µM (inactive) | 37.8 µM (inactive)
5 | Nc1nc(N)c2nc(CNc3ccc(C(=O)NC(CCNC(=O)c4ccccc4C(=O)O)C(=O)O)cc3)cnc2n1 (stereo not given) | 0.01 µM (active) | 0.01 µM (active) | > 100 µM (inactive) | – | 0.01 µM (active) | 0.01 µM (active) | 0.01 µM (active) | 0.01 µM (active) | > 100 µM (inactive) | 0.01 µM (active) | < 0.0154 µM (active) | < 0.0173 µM (active) | 31.6 µM (inactive) | 0.01 µM (active) | > 100 µM (inactive) | < 0.0286 µM (active) | < 0.0434 µM (active) | > 100 µM (inactive) | < 0.0254 µM (active) | –
6 | O=c1c2nn3c(=O)n(-c4ccccc4)c(=O)c3nn2c(=O)n1-c1ccccc1 | > 100 µM (inactive) | > 100 µM (inactive) | > 100 µM (inactive) | > 100 µM (inactive) | > 100 µM (inactive) | > 100 µM (inactive) | > 100 µM (inactive) | > 100 µM (inactive) | > 100 µM (inactive) | > 100 µM (inactive) | > 100 µM (inactive) | > 100 µM (inactive) | > 100 µM (inactive) | > 100 µM (inactive) | > 100 µM (inactive) | > 100 µM (inactive) | > 100 µM (inactive) | > 100 µM (inactive) | > 100 µM (inactive) | > 100 µM (inactive)
7 | C=C1C(=O)O[C@H]2C1C[C@@H](O)/C(C)=C/CC[C@@]1(C)O[C@H]21 (stereo not given in full) | 10.5 µM (inactive) | > 55.1 µM (inactive) | 8.04 µM (inactive) | 4.93 µM (inactive) | 6.37 µM (inactive) | 9.16 µM (inactive) | 9.35 µM (inactive) | 8.57 µM (inactive) | 18.6 µM (inactive) | 8.2 µM (inactive) | 6.93 µM (inactive) | 30.5 µM (inactive) | 3.27 µM (inactive) | 15.2 µM (inactive) | 24.3 µM (inactive) | 16.1 µM (inactive) | 52 µM (inactive) | 12 µM (inactive) | 24.4 µM (inactive) | 13.1 µM (inactive)
8 | Cc1ccc(-n2cc(-c3ccc(Cl)cc3)c3c2N=CN2N=C(c4ccco4)NC32)cc1 (stereo not given) | 4.67 µM (inactive) | 15 µM (inactive) | 26.2 µM (inactive) | 9.18 µM (inactive) | 7.41 µM (inactive) | 21.9 µM (inactive) | 28.8 µM (inactive) | 23.7 µM (inactive) | 5 µM (inactive) | 30.8 µM (inactive) | – | 7.5 µM (inactive) | 6.49 µM (inactive) | 6.28 µM (inactive) | 10 µM (inactive) | > 100 µM (inactive) | 14.3 µM (inactive) | 7.5 µM (inactive) | 5.46 µM (inactive) | > 100 µM (inactive)
9 | CC(=O)NCCSC(=O)c1ccccc1 | 0.0506 µM (active) | 0.155 µM (active) | 0.946 µM (active) | 0.158 µM (active) | 0.285 µM (active) | 0.124 µM (active) | 0.0923 µM (active) | 0.0653 µM (active) | 1.98 µM (inactive) | 0.18 µM (active) | < 0.0176 µM (active) | 0.163 µM (active) | 0.243 µM (active) | 0.192 µM (active) | 0.295 µM (active) | 0.0171 µM (active) | 0.916 µM (active) | 0.126 µM (active) | 0.166 µM (active) | 0.19 µM (active)
10 | Cc1ccnc2sc3ccccc3c(=O)c12 | 65 µM (inactive) | – | 25.9 µM (inactive) | 45.7 µM (inactive) | 42.8 µM (inactive) | 29.5 µM (inactive) | 44.9 µM (inactive) | 38.4 µM (inactive) | 29.3 µM (inactive) | 52.6 µM (inactive) | 26 µM (inactive) | 48.5 µM (inactive) | 91.6 µM (inactive) | 43.1 µM (inactive) | 81.1 µM (inactive) | 24.7 µM (inactive) | 49.8 µM (inactive) | 23.8 µM (inactive) | 56.8 µM (inactive) | 55.2 µM (inactive)
11 | CC(C)(C)OC(=O)N1C(C2=COc3ccccc3O2)=COc2ccccc21 | 38.1 µM (inactive) | 32.7 µM (inactive) | 24.8 µM (inactive) | 19.4 µM (inactive) | 21.5 µM (inactive) | 17.5 µM (inactive) | 27.7 µM (inactive) | 24.2 µM (inactive) | 23.1 µM (inactive) | 31.3 µM (inactive) | 17.1 µM (inactive) | 27.1 µM (inactive) | 21.1 µM (inactive) | 28.3 µM (inactive) | 22 µM (inactive) | 19.1 µM (inactive) | 34.9 µM (inactive) | 33.6 µM (inactive) | 32.1 µM (inactive) | 23.9 µM (inactive)
12 | O=C(N/N=C\c1ccc([N+](=O)[O-])cc1)Nc1ccc2ccccc2c1 | 17.2 µM (inactive) | 43.8 µM (inactive) | 45.4 µM (inactive) | 24.7 µM (inactive) | 73.6 µM (inactive) | 69.7 µM (inactive) | 32.4 µM (inactive) | 32.5 µM (inactive) | 26.1 µM (inactive) | 34.2 µM (inactive) | > 100 µM (inactive) | 50.6 µM (inactive) | > 100 µM (inactive) | 29.8 µM (inactive) | > 100 µM (inactive) | 77.3 µM (inactive) | 52.1 µM (inactive) | 37.5 µM (inactive) | 21.4 µM (inactive) | 44.3 µM (inactive)
13 | O=C1c2cc3ccccc3cc2C2(c3ccc(Cl)cc3)N[C@H]3CCCC[C@@H]3N12 (stereo not given in full) | 11.2 µM (inactive) | 9.62 µM (inactive) | 20 µM (inactive) | 15.3 µM (inactive) | 26.9 µM (inactive) | 19 µM (inactive) | 2.59 µM (inactive) | 24.7 µM (inactive) | 13.3 µM (inactive) | 21.9 µM (inactive) | 40.4 µM (inactive) | 14.2 µM (inactive) | 19.4 µM (inactive) | 5.77 µM (inactive) | 16.4 µM (inactive) | 16.7 µM (inactive) | 13.7 µM (inactive) | 11.7 µM (inactive) | 14.2 µM (inactive) | 19.4 µM (inactive)
14 | COc1cc2oc3c(c(=O)c2c(O)c1/C=C/C(C)C)C(C=C(C)C)Oc1cc(O)ccc1-3 (stereo not given) | 16.2 µM (inactive) | 15 µM (inactive) | 10.6 µM (inactive) | 15.1 µM (inactive) | 7.6 µM (inactive) | 14.2 µM (inactive) | 13.3 µM (inactive) | 14.4 µM (inactive) | 18 µM (inactive) | 15.9 µM (inactive) | 4.83 µM (inactive) | 16.1 µM (inactive) | 15 µM (inactive) | 16.2 µM (inactive) | 16 µM (inactive) | 18.5 µM (inactive) | 16.4 µM (inactive) | 16.4 µM (inactive) | 16.7 µM (inactive) | 18.2 µM (inactive)
